Data on 25 molecules can be found in patent US9868707B2, “Small molecule agonists of neurotensin receptor 1” (SANFORD-BURNHAM MEDICAL RESEARCH INSTITUTE, priority 2012, dated 2018).

The test has as its target NTR1 (Homo sapiens, UniProt P30989). The test can be described thus: NTR1 high-content imaging (HCS) dose response, NTR1-U2OS cells. The test is classed as cell-based. Set-up: host or cells: U2OS osteosarcoma. The conditions noted are these: n = 4 unless otherwise noted; for EC50: Ave. ± S.E.M., read-out: HCS NTR1 Potency EC50. An excerpt:
The cell lines utilized in the high-content imaging assays, which include the NTR1-, NTR2-, and GPR35-U2OS osteosarcomas, were obtained from the laboratory of Dr. Lawrence Barak at the Duke University Medical Center. The media used in the culture of the cell lines, as well as the assays themselves, consisted of Minimum Essential Medium (15-010-CM) and L-glutamine (25-005-CL) from Cellgro/Mediatech (Manassas, Va.), fetal bovine serum (SH30396.03) from Hyclone (Logan, Utah), penicillin-streptomycin solution (PS-20) from Omega Scientific in Tarzana, Calif., G418 (ant-gn-1) from Invivogen (San Diego, Calif.), and zeocin (R250-01) from Invitrogen (Carlsbad, Calif.). Cell lines were cultured in T225 tissue culture flasks (431082) supplied by Corning (Corning, N.Y.). Additional reagents employed include Dulbecco's Phosphate-Buffered Saline (DPBS) (21-031CV) from Cellgro/Mediatech, Trypsin-EDTA 0.05% (25300) from Invitrogen, paraformaldehyde (30528954) from Acros Organics (Geel, Belgium), Hoechst 33342 (H3570) from Invitrogen. The high-content assays were run in 1536-well plates (29326) supplied by Aurora Biotechnology (Poway, Calif.) and utilized aluminum plate seals (T592100) from E&K Scientific (Santa Clara, Calif.).
The neurotensin 1 peptide (N6383) from Sigma-Aldrich (St. Louis, Mo.) was used as a positive control in the NTR1 primary HCS assay. For the NTR2 selectivity assay, the non-specific, small molecule 3-(4-fluorophenyl)-7,8-dimethoxy-5-(4-methylbenzyl)-5H-pyrazolo[4,3-c]quinolone which was synthesized internally was used as a positive control. The GPR35 selectivity screen utilized zaprinast (ALX430-020-M010) from Alexis Biochemicals (Farmingdale, N.Y.) as a control.
The high-content imaging based NTR1 primary screen in 1536-well format was utilized to assay the MLSMR library of chemical entities in the following manner. On day one, 4 uL of a cell suspension containing 350,000 NTR1-U2OS cells per mL is added to each well of a 1536-well assay plate. Cells are plated in MEM medium containing 2.5% Fetal Bovine Serum, 1% Penicillin/Streptomycin solution, 1% L-Glutamine, 400 ug/mL G418, and 200 ug/mL Zeocin. The assay plates are then incubated overnight at 37° C., under 5% CO2. Following the overnight incubation, a volume of 60 nL of the compounds at 2 mM in DMSO (final 20 μM, 1% DMSO) was transferred to columns 5-48 of the assay plates using a LabCyte Echo Liquid Handler. Next, 60 nL of DMSO were dispensed to columns 1-4, which served as the positive and neutral control wells. […] The assay plates were centrifuged on an Eppendorf 5810 centrifuge at 1000 rpm for 1 min to ensure even liquid levels in the wells of the assay plates. The assay plates were then returned to the incubator for 1 hour. Following the hour-long incubation at 37° C., the cells in each well were fixed with 4 uL of 6% paraformaldehyde added with a Multidrop Combi. The assay plates were centrifuged as before and incubated at room temperature for 1 hour. On the Kalypsys, plates were then aspirated down to 2.5 uL per well and washed twice with 11 uL per well of DPBS, followed by a final aspiration to 2.5 uL per well. On the Combi dispenser, 5 uL of 5 ug/mL Hoechst 33342 diluted in DPBS was added to each well of assay plates. The plates were again centrifuged as previously described, sealed, and incubated for at least 1 hour prior to being loaded on a PerkinElmer Opera QEHS.
Image acquisition was performed with a 45 plate capacity loader/stacker and the following settings: 40×0.6 NA air objective, acquisition camera set to 2-by-2 binning for an image size of 688 by 512 pixels, beta-arrestin-GFP acquired using 488 nm laser excitation and 540/75 nm emission filters, DAPI (nuclei) using 365 nm Xenon lamp excitation and 450/50 nm emission filters, 3 fields per well. Image analysis was performed using the Acapella Spot Detection Algorithm. For analysis settings and the metrics employed in the data analyses, please refer to supplemental information.

Where [1] appears, read: read-out: HCS NTR1 Potency Emax.

Each structure is given as a SMILES string. Where two headings read alike, the source gives them in different places.

NTR1, sequence (P30989 whole entry, species assumed): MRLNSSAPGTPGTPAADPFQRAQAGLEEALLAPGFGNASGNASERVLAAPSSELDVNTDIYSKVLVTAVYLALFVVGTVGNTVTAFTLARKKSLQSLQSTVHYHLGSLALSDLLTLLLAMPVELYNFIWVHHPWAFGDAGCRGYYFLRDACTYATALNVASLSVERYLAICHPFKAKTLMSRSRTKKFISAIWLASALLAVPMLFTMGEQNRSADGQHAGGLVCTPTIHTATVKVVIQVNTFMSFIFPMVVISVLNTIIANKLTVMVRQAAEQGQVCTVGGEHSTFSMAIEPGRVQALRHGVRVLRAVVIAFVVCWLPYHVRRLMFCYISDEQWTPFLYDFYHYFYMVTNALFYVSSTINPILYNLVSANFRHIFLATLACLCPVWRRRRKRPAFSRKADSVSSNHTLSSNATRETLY

For the molecule `COc1cc2nc(-c3ccccc3)nc(N3CCN(c4ccccc4OC)CC3)c2cc1OC` [6,7-di-OMe; phenyl; 2-OMe, 2-phenyl-6,7-dimethoxy-4-(4-(2-methoxyphenyl)piperazin-1-yl)quinazoline], the concentration giving a half-maximal response (EC50) – broadly, the concentration giving half of the maximal effect – was found to be 20 ± 10.7 µM. Under setting [1], the Emax (as a rule, the maximal effect, on the per cent scale that the assay sets) turned out to be 78%.

In the case of `COc1cc2nc(-c3ccccc3)nc(N3CCN(c4ccc(F)cc4)CC3)c2cc1OC` [6,7-di-OMe; phenyl; 4-F, 2-phenyl-6,7-dimethoxy-4-(4-(4-fluorophenyl)piperazin-1-yl)quinazoline], the EC50 was over 80 µM. `COc1cc2nc(Cc3ccccc3)nc(N3CCN(c4ccccc4OC)CC3)c2cc1OC` [Compound 309, 2-benzyl-6,7-dimethoxy-4-(4-(2-methoxyphenyl)piperazin-1-yl)quinazoline]: the EC50 is 13.8 ± 3.4 µM. Besides, the Emax under setting [1] came to 81.9%.

For the molecule `CCc1nc(N2CCN(c3ccccc3OC)CC2)c2cc(OC)c(OC)cc2n1` [Compound 310, 2-ethyl-6,7-dimethoxy-4-(4-(2-methoxyphenyl)piperazin-1-yl)quinazoline], the EC50 amounted to 42.6 ± 4.4 µM. Also, under setting [1], the maximum response (Emax) is 100%. In the same order, the values of `CCCc1nc(N2CCN(c3ccccc3OC)CC2)c2cc(OC)c(OC)cc2n1` [Compound 311, 6,7-dimethoxy-4-(4-(2-methoxyphenyl)piperazin-1-yl)-2-propylquinazoline] are 16.6 ± 1.7 µM and 100%. For `COc1cc2nc(C(C)C)nc(N3CCN(c4ccccc4OC)CC3)c2cc1OC` [Compound 312, 2-isopropyl-6,7-dimethoxy-4-(4-(2-methoxyphenyl)piperazin-1-yl)quinazoline], the concentration for a half-maximal effect (EC50) is 7.7 ± 1 µM. Besides, the Emax under setting [1] came to 100%.

For `COc1cc2nc(CC(C)C)nc(N3CCN(c4ccccc4OC)CC3)c2cc1OC` [Compound 313, 2-isobutyl-6,7-dimethoxy-4-(4-(2-methoxyphenyl)piperazin-1-yl)quinazoline], the EC50 was determined as 15.1 ± 1.5 µM. Besides, the Emax under setting [1] worked out at 96.3%. Take `C=Cc1nc(N2CCN(c3ccccc3OC)CC2)c2cc(OC)c(OC)cc2n1` [Compound 314, 6,7-dimethoxy-4-(4-(2-methoxyphenyl)piperazin-1-yl)-2-vinylquinazoline]: the EC50 was found to be 7 ± 1 µM. Besides, under setting [1], the maximal response (Emax) amounted to 100%. In the same order, the values of `COc1cc2nc(C3CCCC3)nc(N3CCN(c4ccccc4OC)CC3)c2cc1OC` [Compound 316, 2-cyclopentyl-6,7-dimethoxy-4-(4-(2-methoxyphenyl)piperazin-1-yl)quinazoline] are 5.8 ± 1.5 µM and 92.8%. For `COc1cc2nc(CC3CC3)nc(N3CCN(c4ccccc4OC)CC3)c2cc1OC` [Compound 317, 2-(cyclopropylmethyl)-6,7-dimethoxy-4-(4-(2-methoxyphenyl)piperazin-1-yl)quinazoline], the 50% effective concentration (EC50) was found to be 14.2 ± 1.2 µM. Also, the Emax under setting [1] was found to be 96.9%. In the same order, the values of `COc1cc2nc(CCN3CCN(c4ccccc4OC)CC3)nc(N3CCN(c4ccccc4OC)CC3)c2cc1OC` [Compound 319, 6,7-dimethoxy-4-(4-(2-methoxyphenyl)piperazin-1-yl)-2-(2-(4-(2-methoxyphenyl)piperazin-1-yl)ethyl)quinazoline] are 25.9 ± 13.7 µM and 74.3%. `COc1cc2nc(C3CCC3)nc(N3CCN(c4ccccc4C)CC3)c2cc1OC` [Compound 323, 2-cyclobutyl-6,7-dimethoxy-4-(4-(o-tolyl)piperazin-1-yl)quinazoline]: the 50% effective concentration (EC50) was determined as 14.9 ± 3.2 µM. The maximal effect (Emax) (heading: HCS NTR1 Potency Emax) stood at 91.6%. With `COc1cc2nc(C3CCC3)nc(N3CCN(c4ccccc4F)CC3)c2cc1OC` [Compound 324, 2-cyclobutyl-4-(4-(2-fluorophenyl)piperazin-1-yl)-6,7-dimethoxyquinazoline], the EC50 was determined as 17.7 ± 1 µM. Further, under setting [1], the maximal response (Emax) is 97.2%. In the same order, the values of `COc1cc2nc(C3CCC3)nc(N3CCN(c4ccccc4Cl)CC3)c2cc1OC` [Compound 325, 4-(4-(2-chlorophenyl)piperazin-1-yl)-2-cyclobutyl-6,7-dimethoxyquinazoline] are 12.2 ± 2.5 µM and 70.5%. The corresponding values for `COc1cc2nc(C3CCC3)nc(N3CCN(c4ccccn4)CC3)c2cc1OC` [Compound 326, 2-cyclobutyl-6,7-dimethoxy-4-(4-(pyridin-2-yl)piperazin-1-yl)quinazoline] are 25.5 ± 1.7 µM and 91.4%.

Regarding `COc1cc2nc(C3CCC3)nc(N3CCN(c4ccccc4[N+](=O)[O-])CC3)c2cc1OC` [Compound 327, 2-cyclobutyl-6,7-dimethoxy-4-(4-(2-nitrophenyl)piperazin-1-yl)quinazoline], the concentration for a half-maximal effect (EC50) was determined as 75.4 ± 1.1 µM. Also, the Emax under setting [1] stood at 100%. In the same order, the values of `COc1cccc(N2CCN(c3nc(C4CCC4)nc4cc(OC)c(OC)cc34)CC2)c1` [Compound 328, 2-cyclobutyl-6,7-dimethoxy-4-(4-(3-methoxyphenyl)piperazin-1-yl)quinazoline] are 17.2 ± 1 µM and 74.9%. Consider `COc1ccc(N2CCN(c3nc(C4CCC4)nc4cc(OC)c(OC)cc34)CC2)cc1` [Compound 329, 2-cyclobutyl-6,7-dimethoxy-4-(4-(4-methoxyphenyl)piperazin-1-yl)quinazoline], for which the EC50 stood at 46.4 ± 17.6 µM. Besides, the maximal effect (Emax) under setting [1] is 100%. The corresponding values for `COc1ccc(N2CCN(c3nc(C4CCC4)nc4cc(OC)c(OC)cc34)CC2)c(OC)c1` [Compound 330, 2-cyclobutyl-4-(4-(2,4-dimethoxyphenyl)piperazin-1-yl)-6,7-dimethoxyquinazoline] are 22.8 ± 0.4 µM and 103%. The corresponding values for `COc1cc2nc(C3CCC3)nc(N3CCN(c4c(C)cccc4C)CC3)c2cc1OC` [Compound 331, 2-cyclobutyl-4-(4-(2,6-dimethylphenyl)piperazin-1-yl)-6,7-dimethoxyquinazoline] are 61.2 ± 5.2 µM and 100%. As to `COc1ccc2nc(C3CCC3)nc(N3CCN(c4ccccc4OC)CC3)c2c1` [Compound 334, 2-cyclobutyl-6-methoxy-4-(4-(2-methoxyphenyl)piperazin-1-yl)quinazoline], the EC50 was found to be 10 ± 1.57 µM. For the same molecule, the maximal effect (Emax) under setting [1] turned out to be 102%. As to `COc1ccc2c(N3CCN(c4ccccc4OC)CC3)nc(C3CCC3)nc2c1` [Compound 335, 2-cyclobutyl-7-methoxy-4-(4-(2-methoxyphenyl)piperazin-1-yl)quinazoline], the EC50 amounted to 30 µM. For the same molecule, the Emax under setting [1] was determined as 112%.

For the molecule `COc1ccccc1N1CCN(c2nc(C3CCC3)nc3ccccc23)CC1` [Compound 336, 2-cyclobutyl-4-(4-(2-methoxyphenyl)piperazin-1-yl)quinazoline], the concentration for a half-maximal effect (EC50) was found to be 22.6 ± 3.9 µM. Further, under setting [1], the maximum response (Emax) is 100%. Turning to `COc1ccccc1N1CCN(c2nc(C3CCC3)nc3cc4c(cc23)OCO4)CC1` [Compound 337, 6-cyclobutyl-8-(4-(2-methoxyphenyl)piperazin-1-yl)-[1,3]dioxolo[4,5-g]quinazoline], the EC50 is 33.7 ± 16.7 µM. Further, the Emax under setting [1] amounted to 87%. The corresponding values for `COc1ccc2nc(C3CC3)nc(N3CCN(c4ccccc4OC)CC3)c2c1` [Compound 338, 2-cyclopropyl-6-methoxy-4-(4-(2-methoxyphenyl)piperazin-1-yl)quinazoline] are 4.1 ± 0.5 µM and 95.7%.
